We go through 16 compounds from patent EP4206196A1, “PYRIMIDINE SUBSTITUTED DERIVATIVES AS TYK2 INHIBITORS” (Almirall S.A., priority 2021, dated 2023).

Assay [1] deals with T1, TYK2 (JH2domain-pseudokinase) (Homo sapiens, UniProt P29597).
T1 construct: TYK2 (JH2domain-pseudokinase)-tagged T7 phage strains were prepared in an E. coli host derived from the BL21 strain; made in house; host or cells: E. coli BL21-derived host (T7 phage) or HEK-293 cells
Put plainly: TYK2 JH2 domain binding assay (KINOMEscan). The essentials: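 Kd values come from nonlinear least-squares fits of 11-point 3-fold dilutions (mostly 30,000 nM top, lowered when Kd fell below 0.5 nM). Test compound competed with bead-bound biotinylated ligand for qPCR-tagged TYK2 pseudokinase (JH2) domain, shaken 1 h at room temperature, with about 1% final DMSO.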

In assay [2] the test system is STAT1/3 through TYK2/JAK1. The assay is described as follows: IFNa induced STAT phosphorylation in HEK293 cells (SIE-bla reporter gene). The format is cell-based. The conditions noted are these: Homo sapiens, HEK293; HEK293T-sie-bla cells, IFNa at EC80, 4 hours; read-out: Inhibition of IFNa induced STAT phosphorylation HEK293 cells IC50. The essentials:
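Read-out was FRET from a β-lactamase reporter under a SIE promoter in HEK293T cells, with substrate added after a 4 h, 37°C co-incubation of compound and EC80 IFNa and left overnight in the dark. Compounds ran as 10-point 1/5 dilutions at 0.1% final DMSO; four-parameter log fit gave IC50.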

The next assay relates to STAT6 through JAK1/JAK3. Put plainly: IL4 induced STAT phosphorylation in Ramos cells (STAT6-bla reporter gene). The format is cell-based. Conditions: for inhibition at 25 µM / inhibition at 5 µM: Homo sapiens, Ramos; for inhibition at 25 µM: compound concentration 25 µM. How it is done: Stimulation of RAMOS cells with interleukine IL-4 activates the signaling pathway of STAT6 through JAK1/JAK3. In this assay, measurement of the activity of the reporter gene β-lactamase expression was used as the readout.
Ramos STAT6-bla RA-1 cell line were purchased from Life Technologies (ref. #K1243) and cultured as specified by the provider. A number of 30.000 cells per well (35 µl) were plated in a 384-well plate (Corning ref.# 3712) and cultured overnight at 37°C with 5% CO2 in a complete Optimem media (Life Technologies ref. #11058-021) containing 556 µg/mL CD40 (Life Technologies ref. #PHP0025), 0.5% (v/v) heat inactivated FBS (Life Technologies ref. #10082-147), 10 µM non-essential aminoacids NEAA (Sigma ref. #M7145), 100 µM Sodium Pyruvate (Gibco ref. #11360-039) and 100 U/mL Penicillin (Sigma ref. #P0781). Compounds were initially dissolved in 100% DMSO. Compound curves were then prepared using a 1/5 serial dilution (10 dilutions). The dilutions were directly diluted in complete Optimem media without CD40 at 40-fold their final concentration in 20% DMSO. IL-4 initial solution (Prepotech ref. #200-04) was prepared at 10-fold its EC80 in complete Optimem media without CD40. Compounds and IL-4 were added simultaneously to the wells with cells and incubated during 4 hours at 37°C (the final DMSO was 0.1%). The β-lactamase substrate (LifeTechnologies ref.#K1138) was prepared at 6-fold its final concentration as specified by the provider. Then 10 µL of the mixture was added to the wells to stop the stimulation. Plate was left in the dark over-night. Then a FRET reading was performed on an appropriate plate reader.
All experiments were analysed using an ExcelFit template and the four-parameter log equation. As % vs compound concentration. TABLE 3: Inhibition of IL4 induced STAT phosphorylation in Ramos cells.
(A reporter such as luciferase makes a cellular process visible.)

Several values for one entry are separate records, joined by “and”; a condition that tells them apart may be missing. Equal values may be shown once.

T1 sequence (P29597 589-875 limits assumed): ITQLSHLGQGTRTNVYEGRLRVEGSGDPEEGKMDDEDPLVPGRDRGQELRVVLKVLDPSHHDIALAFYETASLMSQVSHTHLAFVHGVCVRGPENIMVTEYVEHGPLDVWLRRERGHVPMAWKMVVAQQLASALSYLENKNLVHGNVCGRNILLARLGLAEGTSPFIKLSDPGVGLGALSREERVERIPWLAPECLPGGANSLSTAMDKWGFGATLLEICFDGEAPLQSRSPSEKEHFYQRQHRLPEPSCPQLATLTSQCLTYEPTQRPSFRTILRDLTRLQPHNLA

For `Cc1cc(Nc2cc(Nc3ccc(-c4cnn(C)c4C)cc3S(C)(=O)=O)ncn2)nc(C)n1` [Example 86, N4-[4-(1,5-dimethylpyrazol-4-yl)-2-methylsulfonyl-phenyl]-N6-(2,6-dimethylpyrimidin-4-yl)pyrimidine-4,6-diamine], in assay [1], the Kd was under 0.2 nM. The IC50 in assay [2] was under 10 nM. Also, the inhibition at 25 µM in the assay with STAT6 through JAK1/JAK3 is 78%.
In the case of `COc1c(-c2ncn(C)n2)ccnc1Nc1cc(Nc2cc(C)nc(C)n2)ncn1` [Example 119, N6-(2,6-dimethylpyrimidin-4-yl)-N4-[3-methoxy-4-(1-methyl-1,2,4-triazol-3-yl)-2-pyridyl]pyrimidine-4,6-diamine], the Kd in assay [1] was under 0.2 nM. In addition, in assay [2], the IC50 was under 10 nM. This compound returned an inhibition at 5 µM in the assay with STAT6 through JAK1/JAK3 (compound concentration 5 µM) of 47%.
Turning to `COc1cc(-c2cnn(C)c2C)ccc1Nc1cc(Nc2cc(C)nc(C)n2)ncn1` [Example 80, N6-[4-(1,5-dimethylpyrazol-4-yl)-2-methoxy-phenyl]-N4-(2,6-dimethylpyrimidin-4-yl)pyrimidine-4,6-diamine], the Kd in assay [1] was under 0.2 nM. In assay [2], the IC50 fell in the range of 10 to 100 nM. Also, in the assay on STAT6 through JAK1/JAK3 (compound concentration 5 µM), the inhibition at 5 µM is 47%.
The compound `Cc1cc(Nc2cc(Nc3ccc(C4CC4)cc3N(C)S(C)(=O)=O)ncn2)nc(C)n1` [Example 70, N-[5-cyclopropyl-2-[[6-[(2,6-dimethylpyrimidin-4-yl)amino]pyrimidin-4-yl]amino]phenyl]-N-methyl-methanesulfonamide] yielded an equilibrium dissociation constant (Kd) in assay [1] of under 0.2 nM. The IC50 in assay [2] was under 10 nM. The “% Inhibition of IL4 induced STAT phosphorylation Ramos cells” value in the assay with STAT6 through JAK1/JAK3 (compound concentration 5 µM, 5 µM) was 78% and 55%.
In assay [1], `COc1c(C)cccc1Nc1cc(Nc2cc(C)nc(C)n2)ncn1` [Example 6, N6-(2,6-dimethylpyrimidin-4-yl)-N4-(2-methoxy-3-methyl-phenyl)pyrimidine-4,6-diamine] had a Kd of 0.2 to 1 nM. The IC50 in assay [2] was in the range of 10 to 100 nM. Further, in the assay with STAT6 through JAK1/JAK3 (compound concentration 5 µM), the inhibition at 5 µM was 62%.
Regarding `Cc1cc(Nc2cc(Nc3ncccc3S(C)(=O)=O)ncn2)nc(C)n1` [Example 125, N4-(2,6-dimethylpyrimidin-4-yl)-N6-(3-methylsulfonyl-2-pyridyl)pyrimidine-4,6-diamine], the Kd in assay [1] is under 0.2 nM. Besides, the IC50 in assay [2] is under 10 nM. The compound further returned an inhibition at 5 µM in the assay with STAT6 through JAK1/JAK3 (compound concentration 5 µM) of 46%.
The like results for `Cc1cc(Nc2cc(Nc3ccccc3N(C)S(C)(=O)=O)ncn2)nc(C)n1` [Example 12, N-[2-[[6-[(2,6-dimethylpyrimidin-4-yl)amino]pyrimidin-4-yl]amino]phenyl]-N-methyl-methanesulfonamide] were, in that order, under 0.2 nM, over 1000 nM and 46%.
Regarding `COc1c(Nc2cc(NC(=O)C3CC3)ncn2)cccc1-c1ncn(C)n1` [Example 1, N-[6-[2-methoxy-3-(1-methyl-1,2,4-triazol-3-yl)anilino]pyrimidin-4-yl]cyclopropanecarboxamide], the Kd in assay [1] was 1 to 10 nM. The IC50 in assay [2] fell in the range of 100 to 1000 nM. In the assay on STAT6 through JAK1/JAK3 (compound concentration 5 µM), this compound showed an inhibition at 5 µM of 25%.
In assay [1], `Cc1cc(Nc2cc(Nc3ncc(-c4cnn(C)c4C)cc3S(C)(=O)=O)ncn2)nc(C)n1` [Example 137, N4-[5-(1,5-dimethylpyrazol-4-yl)-3-methylsulfonyl-2-pyridyl]-N6-(2,6-dimethylpyrimidin-4-yl)pyrimidine-4,6-diamine] showed a Kd of under 0.2 nM. Besides, the IC50 in assay [2] was under 10 nM. The inhibition at 25 µM in the assay on STAT6 through JAK1/JAK3 stood at 0%.
Compound `COc1c(Nc2cc(Nc3cc(C)nc(C)n3)ncn2)cccc1-c1ncn(C)n1` [Example 4, N6-(2,6-dimethylpyrimidin-4-yl)-N4-[2-methoxy-3-(1-methyl-1,2,4-triazol-3-yl)phenyl]pyrimidine-4,6-diamine] registered a Kd in assay [1] of 0.2 to 1 nM. Besides, the IC50 in assay [2] is 10 to 100 nM. In addition, 5 µM produced 33% inhibition with STAT6 through JAK1/JAK3 (compound concentration 5 µM).
The like results for `Cc1cc(Nc2cc(Nc3ncc(-c4cnn(C)c4C)cc3N(C)S(C)(=O)=O)ncn2)ncc1F` [Example 103, N-[5-(1,5-dimethylpyrazol-4-yl)-2-[[6-[(5-fluoro-4-methyl-2-pyridyl)amino]pyrimidin-4-yl]amino]-3-pyridyl]-N-methyl-methanesulfonamide] were, in that order, under 0.2 nM, under 10 nM and 49%.
The compound `Cc1cc(Nc2cc(Nc3ncc(-c4cnn(C)c4)cc3N(C)S(C)(=O)=O)ncn2)nc(C)n1` [Example 126, N-[2-[[6-[(2,6-dimethylpyrimidin-4-yl)amino]pyrimidin-4-yl]amino]-5-(1-methylpyrazol-4-yl)-3-pyridyl]-N-methyl-methanesulfonamide] returned a Kd in assay [1] of under 0.2 nM. Further, the half-maximal inhibitory concentration (IC50) in assay [2] is under 10 nM. In addition, 25 µM produced 54% inhibition in the assay on STAT6 through JAK1/JAK3.
In assay [1], `Cc1c(-c2cnc(Nc3cc(Nc4ccc(F)cn4)ncn3)c(N(C)S(C)(=O)=O)c2)cnn1C` [Example 138, N-[5-(1,5-dimethylpyrazol-4-yl)-2-[[6-[(5-fluoro-2-pyridyl)amino]pyrimidin-4-yl]amino]-3-pyridyl]-N-methyl-methanesulfonamide] had a Kd of under 0.2 nM. The IC50 in assay [2] is under 10 nM. In the assay on STAT6 through JAK1/JAK3 (compound concentration 5 µM), this compound came in with an inhibition at 5 µM of 6%.
Taken in the same sequence, the figures for `Cc1cc(Nc2cc(Nc3ncc(-c4cnn(C)c4C)cc3N(C)S(C)(=O)=O)ncn2)ncn1` [Example 135, N-[5-(1,5-dimethylpyrazol-4-yl)-2-[[6-[(6-methylpyrimidin-4-yl)amino]pyrimidin-4-yl]amino]-3-pyridyl]-N-methyl-methanesulfonamide] were under 0.2 nM, 100 to 1000 nM and 37%.
Turning to `COc1c(Nc2cc(Nc3cc(C)nc(C)n3)ncn2)cccc1-c1noc(C)n1` [Example 37, N4-(2,6-dimethylpyrimidin-4-yl)-N6-[2-methoxy-3-(5-methyl-1,2,4-oxadiazol-3-yl)phenyl]pyrimidine-4,6-diamine], the dissociation constant Kd in assay [1] is under 0.2 nM. Besides, the IC50 in assay [2] is 10 to 100 nM. The same compound returned an inhibition at 5 µM in the assay on STAT6 through JAK1/JAK3 (compound concentration 5 µM) of 44%.
Taken in the same sequence, the figures for `Cc1cc(Nc2cc(Nc3ncc(-c4cnn(C)c4C)cc3N(C)S(C)(=O)=O)ncn2)nc(C)n1` [Example 124, N-[5-(1,5-dimethylpyrazol-4-yl)-2-[[6-[(2,6-dimethylpyrimidin-4-yl)amino]pyrimidin-4-yl]amino]-3-pyridyl]-N-methyl-methanesulfonamide] were under 0.2 nM, under 10 nM and 50%.

One may read the Kd as the concentration at which binding is half-saturated. One may read the IC50 as the point on the concentration scale where inhibition reaches its midpoint. Broadly, the inhibition is how much of the control response was suppressed. Higher therefore signals a strong effect.
